As a reminder, the IC50 is the midpoint of a concentration-inhibition curve.

Holding throughout (assay type): biochemical
For one test, the system named is MYC. The experiment in a line: In vitro transcription-translation (IVTT) assay, MYC reporter. The note with it: IVTT assay, HeLa S3 lysate, MYC reporter, normalized sfGFP/mCherry ratio; half-log dilutions 30 μM-0.1 μM, 2 hrs at 30° C. The essentials: (§1)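 Reporter: mCherry, P2A, then 3×FLAG-target peptide-sfGFP fusion, IRES-initiated; HeLa S3 lysate IVTT; cpd dilutions 30 μM−0.1 μM half-log in 100% DMSO (dilution-plate conc); DNA added last; 2 h, 30° C; PBS quench.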

In a further test the test system is CCND1. The experiment in a line: In vitro transcription-translation (IVTT) assay, CCND1 reporter. The conditions noted are these: IVTT assay, HeLa S3 lysate, sfGFP/mCherry ratio. The procedure, abridged:
as §1

A further test relates to NFKB1. The experiment in a line: In vitro transcription-translation (IVTT) assay, NFKB1 reporter. The conditions noted are these: HeLa S3 lysate, sfGFP/mCherry ratio. As to the method:
In vitro transcription-translation assay setup: Each assay includes a master mix containing lysate and shared components, a 96-well plate containing compound titrations for testing, a 96-well DNA plate with reporter constructs to be tested, 96-well skirted PCR plates, and 96-well flat-bottom, black, fluorescent assay plates. Reaction materials setup: (A) Master mix—15 mL conical tube (3 mL of HeLa S3 Lysate described above; 0.6 mL of ThermoFisher Accessory Proteins (#88882); 1.2 ml of ThermoFisher Reaction Mix (#88882); 0.54 mL of nuclease-free Water); (B) 96-Well Master Mix+Compound Plate (Half-log dilutions (30 μM−0.1 μM) of 4 compounds of interest are prepared in 100% DMSO); 96-Well DNA Plate (Five DNA constructs are plated into single columns within the plate. Row 1 of the column contains nuclease free H2O, all other wells contain 110 ng/μL plasmid DNA). Reactions are started by mixing 155 μL of master mix and 3.5 μL of compound serial dilutions, then 9.1 μL of master mix+compound mixture is aliquoted across 5 96-well plates. Reactions begin with final addition of 2 μL of DNA for a 11.1 μL reaction volume in each well. The entire plate is sealed, and incubated for 2 hrs at 30° C. After 2 hrs, quench the assay using 45 μL of PBS, and transfer 50 μL to a flat-bottom black microplate Quantify the sfGFP and mCherry signals from each well on each plate, taking 3 reads of each plate, and perform data analysis below.
In vitro transcription-translation assay data analysis: Each plate is read three times in channels for both sfGFP and mCherry signals. The average signal across these 3 reads is then calculated for further analysis. Control wells containing no DNA reporter are subtracted from reporter wells in the same column to remove auto-fluorescence of the lysate. Then, the ratio of sfGFP/mCherry is calculated per well, and these ratios are averaged across the triplicate experiments on the same plate. Finally, the ratio of each titration concentration is normalized to the no drug control to create the normalized stalling metric. The error on this measurement is determined by propagating error through the averaging and normalization steps. Values are plotted and fit for IC50 determination for each test sequence and titration of compound.

Regarding `CNC1(c2ccc(CNC(=O)O[C@@H]3[C@@H](O)CN[C@@H]3Cc3ccc(-c4cnco4)cc3)cc2)CC1` [V192288, (2R,3S,4S)-4-hydroxy-2-{[4-(1,3-oxazol-5-yl)phenyl]methyl}pyrrolidin-3-yl N-({4-[1-(methylamino)cyclopropyl]phenyl}methyl)carbamate], the concentration for half-maximal inhibition (IC50) in the test with MYC, with CCND1 and in the test with NFKB1 was less than 10 µM in each case.

Turning to `CNC1(c2cccc(CNC(=O)O[C@@H]3[C@@H](O)CN[C@@H]3Cc3ccc(-c4cnco4)cc3)c2)CC1` [V192289, (2R,3S,4S)-4-hydroxy-2-{[4-(1,3-oxazol-5-yl)phenyl]methyl}pyrrolidin-3-yl N-({3-[1-(methylamino)cyclopropyl]phenyl}methyl)carbamate], the IC50 with MYC, in the test with CCND1 and in the test with NFKB1 was less than 10 µM in each case.

On to `O=C(NCc1cccc(F)c1)O[C@@H]1[C@@H](O)CN[C@@H]1Cc1ccc(-c2cnc(C(F)F)s2)cc1` [V192310, (2R,3S,4S)-2-({4-[2-(difluoromethyl)-1,3-thiazol-5-yl]phenyl}methyl)-4-hydroxypyrrolidin-3-yl N-[(3-fluorophenyl)methyl]carbamate], for which the concentration for half-maximal inhibition (IC50) in the test on MYC is less than 10 µM; with CCND1, 10 to 20 µM; with NFKB1, less than 10 µM.

As for `O=C(NCc1cccc(F)c1)O[C@@H]1[C@@H](O)CN[C@@H]1Cc1ccc(-c2cnns2)cc1` [V192319, (2R,3S,4S)-4-hydroxy-2-{[4-(1,2,3-thiadiazol-5-yl)phenyl]methyl}pyrrolidin-3-yl N-[(3-fluorophenyl)methyl]carbamate], the IC50 in the test with MYC, in the test with CCND1 and in the test with NFKB1 was less than 10 µM each time.

For the compound `O=C(NCC[C@@H]1CCCN1)O[C@@H]1[C@@H](O)CN[C@@H]1Cc1ccc(-c2cnns2)cc1` [V192320, (2R,3S,4S)-4-hydroxy-2-{[4-(1,2,3-thiadiazol-5-yl)phenyl]methyl}pyrrolidin-3-yl N-{2-[(2S)-pyrrolidin-2-yl]ethyl}carbamate], the IC50 with MYC, with CCND1 and with NFKB1 was less than 10 µM in each case.

On to `O=C(NCc1cccc(F)c1)O[C@@H]1[C@@H](O)CN[C@@H]1Cc1ccc(-c2ccns2)cc1` [V192324, (2R,3S,4S)-4-hydroxy-2-{[4-(1,2-thiazol-5-yl)phenyl]methyl}pyrrolidin-3-yl N-[(3-fluorophenyl)methyl]carbamate], for which the 50% inhibitory concentration (IC50) in the test with MYC, in the test with CCND1 and in the test with NFKB1 was less than 10 µM in each case.

For `O=C(NCC[C@@H]1CCCN1)O[C@@H]1[C@@H](O)CN[C@@H]1Cc1ccc(-c2ccns2)cc1` [V192331, (2R,3S,4S)-4-hydroxy-2-{[4-(1,2-thiazol-5-yl)phenyl]methyl}pyrrolidin-3-yl N-{2-[(2S)-pyrrolidin-2-yl]ethyl}carbamate], the 50% inhibitory concentration (IC50) with MYC, in the test with CCND1 and in the test with NFKB1 was less than 10 µM in each case.

Turning to `O=C(NCC[C@@H]1CCCN1)O[C@@H]1[C@@H](O)CN[C@@H]1Cc1ccc([N+](=O)[O-])cc1` [V192359, (2R,3S,4S)-4-hydroxy-2-[(4-nitrophenyl)methyl]pyrrolidin-3-yl N-{2-[(2S)-pyrrolidin-2-yl]ethyl}carbamate], the IC50 with MYC, in the test on CCND1 and in the test with NFKB1 was less than 10 µM throughout.

Take `O=C(NCc1cccc(F)c1)O[C@@H]1[C@@H](O)CN[C@@H]1Cc1ccc(-c2ccc3nonc3c2)cc1` [V192385, (2R,3S,4S)-2-{[4-(2,1,3-benzoxadiazol-5-yl)phenyl]methyl}-4-hydroxypyrrolidin-3-yl N-[(3-fluorophenyl)methyl]carbamate]: the IC50 in the test with MYC, with CCND1 and with NFKB1 was less than 10 µM in each case.

`O=C(NCc1cccc(F)c1)O[C@@H]1[C@@H](O)CN[C@@H]1Cc1ccc(Oc2cncs2)cc1` [V192395, (2R,3S,4S)-4-hydroxy-2-{[4-(1,3-thiazol-5-yloxy)phenyl]methyl}pyrrolidin-3-yl N-[(3-fluorophenyl)methyl]carbamate]: the IC50 in the test with MYC, in the test with CCND1 and in the test with NFKB1 was less than 10 µM throughout.
